# Source: publication PMC4710522, “A Novel Triazolopyridine-Based Spleen Tyrosine Kinase Inhibitor That Arrests Joint Inflammation” (PLoS ONE, 2016)
# Where two headings read alike, the source gives them in different places.
# How the values were obtained:
# [1] = biological target: T1, human ether-à-go-go-related Gene (hERG) channel (Homo sapiens, UniProt Q12809); assay: non-GLP manual patch clamp hERG assay (ChanTest); assay type: cell-based; details: data not shown
# T1 construct: ChanTest (contract assay)
# Description: (§1) Syk kinase mode of inhibition studies, including parameters described in Fig 1, were conducted on the LC3000 platform by Caliper Life Sciences (Hopkinton, MA) according to standard protocols developed by the supplier. […] Non-kinase enzyme assays and GPCR, ion channel, and transporter binding assays were run by CEREP (France). Non-GLP manual patch clamp hERG assays were run by ChanTest (Cleveland, Ohio). Vivid® Assay kits (Life Technologies) were used to measure the cytochrome P450 inhibition of the compound against CYP3A, CYP2C9, CYP2C19, CYP2D6, and CYP1A2, as described.
# JAK2 = biological target: T2, JAK2 (Homo sapiens, UniProt O60674); assay: JAK2 HTRF assay; assay type: biochemical
# T2 construct: purchased Millipore 14-511
# Description: CC-509 was prepared at a concentration of 1.5 mM in DMSO followed by 3-fold dilutions in Greiner […] polypropylene plates. A 1:4 dilution of compounds by 8 μL/well transfer from the polypropylene plates to 24 μL/well Assay Buffer (50 mM HEPES pH 7.6, 1 mM DTT, 10 mM MgCl2, 0.01% Triton X100, 0.01% BSA and 0.1 mM EDTA) in Costar 3573 384 well black plates was then performed. Kinase (13 μL/well of 4.6 ng/mL JAK2, Millipore 14–511) or Assay Buffer only (background controls) were added to Costar 3573 384-well black plates and compound (2 μL/well) was added from the 1:4 dilution plate. […] Time resolved fluorescence was read in assay plates on a PerkinElmer EnVision. […]
# For the TEL-Syk assay, the intensity values for the 700 and 800 channel were exported as text files in ActivityBase (IDBS, Guildford, UK) to derive the ratios that reflect kinase activity. […] For the JAK2 HEL and Ramos NFAT β-lactamase assays, the fluorescence values obtained at 460 nm and 530 nm were exported into ActivityBase to calculate response ratios. […] Evans blue dye extravasation was expressed as mean ± SEM and % inhibition for the test article groups was normalized to the cromolyn positive control. […] The mean data from each group was plotted and either the AUC(day 11–18) or % inhibition on day 18 was calculated. Data is expressed as mean ± SEM of each group with n = 6–12. […]
# [2] = system: rat collagen-induced arthritis model; assay: rat collagen-induced arthritis (CIA) model, paw swelling; assay type: in vivo; details: for inhibition of paw swelling: 8 days
# Description: (§2) Female Lewis rats (150 – 170g; Charles River Laboratories) were house standard shoebox cages, fed Harlan-Tekald diet and water ad libitum and maintained on a 12h light/dark cycle. For induction of arthritis rats were anesthetized with isofluorane and their entire dorsal area shaved. Rats were injected (intradermal) with 100 μl of equal volumes of collagen (Chrondrex, Redmond, WA) and IFA (Sigma Chemicals, St. Louis, MO) emulsion in 10 sites across the dorsal region. At disease onset 11 days following immunization animals were randomized into groups based on their ankle measurements and test article administration was initiated. Rats were dosed orally with vehicle (20% Captisol®), Indomethacin (Sigma Chemicals, St. Louis, MO, 2mg/kg) or CC-509 (15, 25mg/kg QD or 15mg/kg BID) in a dose volume of 5ml/kg. […] On the last day of the study animals were split into 2 cohorts and bleed twice via tail bleed under isofluorane anesthesia and a third terminal bleed following CO2 asphyxiation to obtain a time course of plasma compound exposure at 30minutes, 1, 2, 4, 8 and 24h after the last dose of CC-509.
# For the TEL-Syk assay, the intensity values for the 700 and 800 channel were exported as text files in ActivityBase (IDBS, Guildford, UK) to derive the ratios that reflect kinase activity. For LAD2 experiments, enzyme activity values were exported as text files into ActivityBase to calculate “percent release” according to the formula: 100* supernatant OD405/ (supernatant OD405 + (pellet OD405*pellet dilution factor)). For the basophil and B-cells assays, flow cytometry data was exported from the FACS Array and processed using FloJo software package (TreeStar, Inc., Ashland, Oregon). For the JAK2 HEL and Ramos NFAT β-lactamase assays, the fluorescence values obtained at 460 nm and 530 nm were exported into ActivityBase to calculate response ratios. For the neutrophil, macrophage, KDR, and JAK1/3 assays, raw values were exported into ActivityBase to calculate percent inhibition. All IC50 calculations were generated using XLfit (IDBS, Guildford, UK) algorithm 205 within Excel. For PCA, the OD from the saline injected site was subtracted from the OD from the anti-DNP IgE injected site. Evans blue dye extravasation was expressed as mean ± SEM and % inhibition for the test article groups was normalized to the cromolyn positive control. For the CIA model paw measurements (left and right ankle diameter) were taken for each individual animal and averaged. The mean data from each group was plotted and either the AUC(day 11–18) or % inhibition on day 18 was calculated. Data is expressed as mean ± SEM of each group with n = 6–12. Statistical analysis was performed with Prism Graphpad using one-way ANOVA followed by Dunnett’s comparison using the vehicle group as the control or for measurements over time a 2 way ANOVA followed by a Dunnett’s multiple comparison test. Statistical significance was deemed as * = p<0.05, **p<0.01, ***p<0.001 and p<0.0001.
# PI3K-C2 beta_h = biological target: T3, PI3K-C2 beta_h (Homo sapiens, UniProt O00750); assay: SelectScreen kinase assay; assay type: biochemical; details: 10 µM ATP, read-out: % control
# T3 construct: purchased Life Technologies (Invitrogen) SelectScreen, Z'-LYTE / Adapta
# Description: as §1
# (§3) Kinase activity was measured using either the Z’-Lyte® or the Adapta® protocols as part of the SelectScreen™ profiling service offered at Life Technologies (Grand Island, NY). For the single point measurements (Part A), CC-509 was kept constant at 3 µM while ATP concentrations [ATP] used were at the KM for ATP (KM ATP) for that specific enyzme, at 10 or 100 µM ATP (10 ATP or 100 ATP, respectively), as indicated. Values expressed as percent control (% control) relative to DMSO-only wells (uninhibited, 100%).
# PI4K-alpha_h = biological target: T4, PI4K-alpha_h (Homo sapiens, UniProt P42356); assay: SelectScreen kinase assay; assay type: biochemical; details: 10 µM ATP, read-out: % control
# T4 construct: purchased Life Technologies (Invitrogen) SelectScreen, Z'-LYTE / Adapta
# Description: as §1, §3
# PI4K-beta_h = biological target: T5, PI4K-beta_h (Homo sapiens, UniProt Q9UBF8); assay: SelectScreen kinase assay; assay type: biochemical; details: KM ATP, read-out: % control
# T5 construct: purchased Life Technologies (Invitrogen) SelectScreen, Z'-LYTE / Adapta
# Description: as §1, §3
# [3] = plasma compound exposure in rat CIA study; assay type: in vivo; details: for AUC(0-t): female, Lewis, rat, plasma, po, read-out: AUC0-24h in plasma after the last day of dosing
# Description: as §2
# T2 sequence (O60674 whole entry): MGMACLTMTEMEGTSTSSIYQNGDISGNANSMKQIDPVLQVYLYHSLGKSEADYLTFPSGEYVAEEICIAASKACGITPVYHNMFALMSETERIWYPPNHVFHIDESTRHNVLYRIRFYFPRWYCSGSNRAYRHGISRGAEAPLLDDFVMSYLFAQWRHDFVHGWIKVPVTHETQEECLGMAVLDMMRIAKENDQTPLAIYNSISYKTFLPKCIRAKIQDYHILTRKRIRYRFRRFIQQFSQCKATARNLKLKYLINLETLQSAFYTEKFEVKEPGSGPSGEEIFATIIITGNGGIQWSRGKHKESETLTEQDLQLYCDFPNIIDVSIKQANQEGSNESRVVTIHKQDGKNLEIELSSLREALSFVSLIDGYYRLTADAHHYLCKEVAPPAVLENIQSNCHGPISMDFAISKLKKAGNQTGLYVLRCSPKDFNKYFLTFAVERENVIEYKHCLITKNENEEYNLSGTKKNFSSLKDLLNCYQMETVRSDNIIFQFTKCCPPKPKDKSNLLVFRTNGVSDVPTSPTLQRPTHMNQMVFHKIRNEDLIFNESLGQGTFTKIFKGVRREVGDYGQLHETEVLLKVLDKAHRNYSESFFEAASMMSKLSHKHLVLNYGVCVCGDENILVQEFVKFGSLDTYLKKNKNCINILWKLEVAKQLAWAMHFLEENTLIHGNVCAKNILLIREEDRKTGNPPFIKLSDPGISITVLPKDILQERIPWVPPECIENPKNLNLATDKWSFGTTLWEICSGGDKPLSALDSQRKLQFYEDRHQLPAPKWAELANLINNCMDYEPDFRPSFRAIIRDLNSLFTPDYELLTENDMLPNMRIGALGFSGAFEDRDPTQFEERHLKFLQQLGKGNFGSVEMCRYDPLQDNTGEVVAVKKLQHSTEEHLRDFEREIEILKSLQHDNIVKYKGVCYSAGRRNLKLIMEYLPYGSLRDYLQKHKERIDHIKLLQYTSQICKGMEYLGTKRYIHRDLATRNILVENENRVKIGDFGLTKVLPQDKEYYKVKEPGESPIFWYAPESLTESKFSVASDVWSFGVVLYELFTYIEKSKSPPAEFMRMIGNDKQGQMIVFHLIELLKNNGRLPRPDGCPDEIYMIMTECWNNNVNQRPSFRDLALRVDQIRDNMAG
# T4 sequence (P42356 whole entry): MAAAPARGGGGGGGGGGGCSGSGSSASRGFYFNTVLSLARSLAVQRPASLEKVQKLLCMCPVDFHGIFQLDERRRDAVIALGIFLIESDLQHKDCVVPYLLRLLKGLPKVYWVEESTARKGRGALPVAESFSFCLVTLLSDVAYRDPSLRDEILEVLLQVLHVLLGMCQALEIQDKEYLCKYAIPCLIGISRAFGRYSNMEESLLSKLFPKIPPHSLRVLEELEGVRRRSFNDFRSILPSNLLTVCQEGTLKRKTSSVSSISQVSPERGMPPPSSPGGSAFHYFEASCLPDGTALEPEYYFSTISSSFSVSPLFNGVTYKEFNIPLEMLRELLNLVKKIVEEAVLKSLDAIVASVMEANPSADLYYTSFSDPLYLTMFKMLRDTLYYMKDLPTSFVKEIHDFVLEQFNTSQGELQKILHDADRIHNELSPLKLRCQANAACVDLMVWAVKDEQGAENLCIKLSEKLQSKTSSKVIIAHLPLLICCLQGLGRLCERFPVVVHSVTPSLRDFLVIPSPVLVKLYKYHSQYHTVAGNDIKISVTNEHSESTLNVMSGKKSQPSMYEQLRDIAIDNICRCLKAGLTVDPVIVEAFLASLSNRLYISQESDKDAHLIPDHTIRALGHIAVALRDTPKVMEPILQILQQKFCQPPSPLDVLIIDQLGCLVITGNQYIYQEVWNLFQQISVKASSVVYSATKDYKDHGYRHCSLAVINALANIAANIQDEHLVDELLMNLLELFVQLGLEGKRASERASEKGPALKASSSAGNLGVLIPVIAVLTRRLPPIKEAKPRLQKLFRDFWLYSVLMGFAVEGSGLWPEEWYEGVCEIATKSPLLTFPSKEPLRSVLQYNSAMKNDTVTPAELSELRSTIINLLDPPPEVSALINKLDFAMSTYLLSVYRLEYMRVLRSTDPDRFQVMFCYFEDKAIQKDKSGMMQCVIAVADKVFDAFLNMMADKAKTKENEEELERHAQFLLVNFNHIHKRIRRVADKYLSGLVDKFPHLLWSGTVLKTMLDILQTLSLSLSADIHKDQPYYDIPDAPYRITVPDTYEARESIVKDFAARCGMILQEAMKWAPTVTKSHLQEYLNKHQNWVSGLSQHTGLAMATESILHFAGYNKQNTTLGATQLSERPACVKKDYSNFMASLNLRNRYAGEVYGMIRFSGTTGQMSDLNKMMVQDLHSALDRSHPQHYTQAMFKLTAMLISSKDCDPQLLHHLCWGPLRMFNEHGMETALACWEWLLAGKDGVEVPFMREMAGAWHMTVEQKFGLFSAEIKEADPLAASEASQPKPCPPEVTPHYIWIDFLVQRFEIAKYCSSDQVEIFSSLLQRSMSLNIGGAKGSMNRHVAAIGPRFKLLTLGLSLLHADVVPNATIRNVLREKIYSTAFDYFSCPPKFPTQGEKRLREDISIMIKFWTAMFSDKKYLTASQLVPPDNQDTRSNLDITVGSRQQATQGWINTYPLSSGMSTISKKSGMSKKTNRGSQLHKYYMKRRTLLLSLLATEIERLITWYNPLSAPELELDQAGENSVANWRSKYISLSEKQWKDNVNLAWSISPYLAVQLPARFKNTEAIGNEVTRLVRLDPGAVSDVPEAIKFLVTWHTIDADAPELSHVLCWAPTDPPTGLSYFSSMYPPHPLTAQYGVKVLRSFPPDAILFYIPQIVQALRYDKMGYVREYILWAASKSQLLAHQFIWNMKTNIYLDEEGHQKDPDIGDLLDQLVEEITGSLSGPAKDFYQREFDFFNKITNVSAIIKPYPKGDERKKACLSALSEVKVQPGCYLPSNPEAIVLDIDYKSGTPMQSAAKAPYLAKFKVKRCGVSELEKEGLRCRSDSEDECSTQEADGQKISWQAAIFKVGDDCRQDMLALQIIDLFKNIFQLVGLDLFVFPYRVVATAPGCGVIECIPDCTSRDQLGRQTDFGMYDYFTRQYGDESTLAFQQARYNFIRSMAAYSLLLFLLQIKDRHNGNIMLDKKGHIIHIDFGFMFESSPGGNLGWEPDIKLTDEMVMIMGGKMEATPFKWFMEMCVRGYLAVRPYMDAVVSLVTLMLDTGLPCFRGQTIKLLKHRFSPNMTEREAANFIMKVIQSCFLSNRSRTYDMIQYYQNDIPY
# T3 sequence (O00750 whole entry): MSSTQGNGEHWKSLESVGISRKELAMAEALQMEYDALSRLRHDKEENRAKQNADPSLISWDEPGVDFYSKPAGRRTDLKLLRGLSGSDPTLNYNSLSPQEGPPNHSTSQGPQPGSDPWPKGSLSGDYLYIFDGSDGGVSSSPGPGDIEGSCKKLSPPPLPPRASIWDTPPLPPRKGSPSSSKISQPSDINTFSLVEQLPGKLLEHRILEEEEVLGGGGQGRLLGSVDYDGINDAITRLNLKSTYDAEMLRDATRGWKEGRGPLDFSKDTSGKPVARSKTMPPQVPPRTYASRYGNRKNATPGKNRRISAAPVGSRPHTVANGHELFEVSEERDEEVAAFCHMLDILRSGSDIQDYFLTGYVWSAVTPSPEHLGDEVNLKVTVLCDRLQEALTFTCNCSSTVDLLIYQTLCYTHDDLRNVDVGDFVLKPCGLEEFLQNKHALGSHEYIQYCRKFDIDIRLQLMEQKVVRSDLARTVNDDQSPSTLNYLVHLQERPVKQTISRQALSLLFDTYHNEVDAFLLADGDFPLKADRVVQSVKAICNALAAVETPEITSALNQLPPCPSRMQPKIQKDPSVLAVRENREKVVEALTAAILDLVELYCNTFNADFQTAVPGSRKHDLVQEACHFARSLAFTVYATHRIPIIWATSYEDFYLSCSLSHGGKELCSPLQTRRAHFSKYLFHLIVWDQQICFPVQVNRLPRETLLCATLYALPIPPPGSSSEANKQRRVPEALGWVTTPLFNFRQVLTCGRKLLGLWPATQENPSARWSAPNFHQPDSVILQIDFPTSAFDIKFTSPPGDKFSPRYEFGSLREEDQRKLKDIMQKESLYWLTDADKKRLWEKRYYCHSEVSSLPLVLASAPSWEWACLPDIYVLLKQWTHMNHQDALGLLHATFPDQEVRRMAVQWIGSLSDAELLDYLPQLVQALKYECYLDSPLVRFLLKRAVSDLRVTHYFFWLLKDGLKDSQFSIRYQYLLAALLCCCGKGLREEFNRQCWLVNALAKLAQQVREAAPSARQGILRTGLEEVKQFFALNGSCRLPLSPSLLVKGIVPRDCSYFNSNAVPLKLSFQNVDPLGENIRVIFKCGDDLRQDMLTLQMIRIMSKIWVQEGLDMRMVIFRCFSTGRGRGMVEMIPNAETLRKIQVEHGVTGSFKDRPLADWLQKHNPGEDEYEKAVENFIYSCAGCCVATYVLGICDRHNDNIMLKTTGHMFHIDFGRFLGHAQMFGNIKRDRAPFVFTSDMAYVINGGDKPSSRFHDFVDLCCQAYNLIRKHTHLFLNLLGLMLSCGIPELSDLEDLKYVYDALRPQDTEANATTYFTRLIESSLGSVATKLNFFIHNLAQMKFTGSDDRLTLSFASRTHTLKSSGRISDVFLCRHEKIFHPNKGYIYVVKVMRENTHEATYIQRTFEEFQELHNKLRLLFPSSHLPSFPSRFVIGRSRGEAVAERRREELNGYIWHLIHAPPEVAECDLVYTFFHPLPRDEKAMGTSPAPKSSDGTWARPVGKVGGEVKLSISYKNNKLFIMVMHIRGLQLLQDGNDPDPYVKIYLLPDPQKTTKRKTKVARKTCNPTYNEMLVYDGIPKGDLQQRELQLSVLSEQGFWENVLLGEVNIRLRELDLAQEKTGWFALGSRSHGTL
smiles,measurement,setting,value
"c1cc(CC2CCOCC2)n2nc(Nc3ccc4c(NC5CCOCC5)n[nH]c4c3)nc2c1 [CC-509, [3-(2H-3,4,5,6-tetrahydropyran-4-ylamino)(1H-indazol-6-yl)][5-(2H-3,4,5,6-tetrahydropyran-4-ylmethyl)(2H-1,2,4-triazolo[1,5-a]pyridin-2-yl)]amine]",inhibition of hERG channel activity,[1],did not inhibit
same,"fold less potent than R406, Jak2 enzyme",JAK2; data not shown,22 fold
same,IC50,"JAK2; in-house, mean ± SD",19 ± 2 nM
same,inhibition of paw swelling,"[2]; 15 mg/kg b.i.d. oral, p<0.001",72%
same,inhibition of paw swelling,"[2]; 15 mg/kg q.d. oral, not significant",32%
same,inhibition of paw swelling,"[2]; 25 mg/kg q.d. oral, p<0.0001",74%
same,ED50,[2]; rat CIA model,~10 mg/kg
same,remaining activity at 3 µM,PI3K-C2 beta_h,98%
same,remaining activity at 3 µM,PI4K-alpha_h,120%
same,remaining activity at 3 µM,PI4K-beta_h,77%
same,AUC(0-t),"[3]; 15 mg/kg, 15 mg/kg b.i.d.",60 µM·h
same,AUC(0-t),"[3]; 15 mg/kg, 15 mg/kg q.d.",22 µM·h
same,AUC(0-t),"[3]; 25 mg/kg, 25 mg/kg q.d.",45 µM·h
same,minimal efficacious exposure,[3]; rat CIA,45 µM·h
